Common to all, as to type: in vivo, Guinea pig
The subject of assay [1] is bronchospasm caused by histamine. Nature of the assay: Bronchospasmolytic activity, modified Konzett-Rossler test, histamine-induced bronchospasm. Particulars: dose inhibiting effect of asthmogenic agent to 50% of initial value, male white Guinea pigs, anesthesized, V. jugularis. As to the method: (§1) To test the bronchospasmolytic activity of the compounds of the invention the following experiments were carried through:
(§2) TEST ACCORDING TO KONZETT-ROSSLER
(§3) To test the bronchospasmolytic activity the respiratory volume was measured by the method of Konzett-Rossler, according to which the air volume is measured which is taken up by the lung when the maximum inflation pressure is maintained constant and a constant volume is offered by high pressure respiration. Capacity variations in the respiratory tract result in an increase or decrease of the amount of air taken up by the lung under the given constant inflation pressure.
(§4) As test animals male white Guinea pigs having a weight of from 400 to 500 grams were used which had been anesthesized with 10 mg/kg i.p. of Evipan and 200 mg/kg i.p. of urethane. The substance to be tested was administered by means of a catheter in the V. jugularis. The positive pressure respiration depended on the normal respiratory volume of the test animal and could be adapted suitably and readily to the individual test animal. In the tests carried through the pressure indicated by Rosenthal and Dervinis of 80 mm H2 O was used. During the recovery phase after a bronchospastic reaction the flexible hose leading to the water manometer was clamped off for a short period of time in order to open deflating lung segments. The respiration frequency amounted to 64-72 per minute. The respiratory volume was measured according to the slightly modified Konzett-Rossler method wherein the piston recorder was replaced by a back-pressure tube according to Fleisch (type 0000). The occuring pressure difference was recorded by a difference pressure recorder of the type Statham PM 97 CT. To record the measured values a multi-channel recorder of Messrs. Hellige was used. The substance to be tested was used in the form of a standard solution in absolute alcohol. Directly prior to the start of the test it was diluted to the required final concentration with phosphate buffer (pH 7.4). The asthmogenic solution was prepared with double distilled water.
(§5) As asthmogenic agents histamine dihydrochloride, acetyl choline chloride and sertonine creatinine sulfate were used. To reduce the error resulting from individual differences in the bronchospasm intensity with a uniform dose of asthmogenic agent, the dosage unit was chosen such that an about 70 to 80% decrease of the absorption capacity of the lung was obtained. The experimental data were subjected to the regression analysis according to the probit transformation and the equation of the straight lines of regression y=a+b log x was calculated. In this manner the average inhibition dose (ID50 =the dose which inhibits the effect of the asthmogenic agent to 50% of the initial value) was found. Additionally, the results obtained by carrying out a simple variance analysis in the Duncan Test were compared with the control.

The test system of the next assay is bronchial muscles. In words: Bronchospasmolytic effect and its duration, modified Konzett-Rossler test. The conditions noted are these: male white Guinea pigs, anesthesized; V. jugularis; asthmogenic agent not specified. How it is done: as §1, §2, §3, §4, §5
The test system of assay [2] is spasm caused by acetylcholine. Nature of the assay: Bronchospasmolytic activity, modified Konzett-Rossler test, acetylcholine-induced bronchospasm. Particulars: dose inhibiting effect of asthmogenic agent to 50% of initial value, male white Guinea pigs, anesthesized, V. jugularis. As to the method:
as §1, §2, §3, §4
as §5, with “Additionally, the results obtained by carrying out a simple variance analysis in the Duncan Test were compared with the control.” left out

Assay [3] deals with spasm initiated by serotonin. In words: Bronchospasmolytic activity, modified Konzett-Rossler test, serotonin-induced bronchospasm. The conditions noted are these: dose inhibiting effect of asthmogenic agent to 50% of initial value, male white Guinea pigs, anesthesized, V. jugularis. How it is done: as §1, §2, §3
as §4, with “The substance to be tested was used in the form of a standard solution in absolute alcohol. Directly prior to the start of the test it was diluted to the required final concentration with phosphate buffer (pH 7.4). The asthmogenic solution was prepared with double distilled water.” left out
As asthmogenic agents histamine dihydrochloride, acetyl choline chloride and sertonine creatinine sulfate were used. […] The experimental data were subjected to the regression analysis according to the probit transformation and the equation of the straight lines of regression y=a+b log x was calculated. […]

In turn, `CCCCC[C@H](O)/C=C/[C@H]1CCC(=O)[C@@H]1CCC(C)CCCC(=O)OC1CCCCC1` (stereo partly shown) [Example 6, 5-Methyl-10,11-dihydroprostaglandin-A1 cyclohexyl ester] displayed an ID50 values histamine in assay [1] of 7.5 ng/animal. Besides, the duration of effect with bronchial muscles came to 60 min.

`CCCCC[C@H](O)/C=C/[C@H]1CCC(=O)[C@@H]1CCC(C)CCCC(=O)OCCCC` (stereo partly shown) [Example 3, 5-Methyl-10,11-dihydroprostaglandin-A1 n-butyl ester] gave an ID50 values histamine in assay [1] of 0.63 ng/animal. In assay [2], this compound displayed an ID50 values acetylcholine of 6.9 ng/animal. Besides, the ID50 values serotonin in assay [3] is 1.2 ng/animal. In the assay with bronchial muscles, this compound gave a duration of effect of 15 to 20 min.

In the case of `CCCCC[C@H](O)/C=C/[C@H]1CCC(=O)[C@@H]1CCC(C)CCCC(=O)OCCCC(C)(C)C` (stereo partly shown) [Example 4], the ID50 values histamine in assay [1] turned out to be 7 ng/animal. In the assay with bronchial muscles, this compound yielded a duration of effect of 20 to 25 min.

In turn, `CCCCCCOC(=O)CCCC(C)CC[C@H]1C(=O)CC[C@@H]1/C=C/[C@@H](O)CCCCC` (stereo partly shown) [Example 1, 5-Methyl-10,11-dihydroproxtaglandin-A1 n-hexyl ester] returned an ID50 values histamine in assay [1] of 1 ng/animal. Also, the ID50 values acetylcholine in assay [2] is recorded as 3 ng/animal. This compound displayed a duration of effect with bronchial muscles of 30 min.

The compound `CCCCCCCCCCOC(=O)CCCC(C)CC[C@H]1C(=O)CC[C@@H]1/C=C/[C@@H](O)CCCCC` (stereo partly shown) [Example 2, 5-Methyl-10,11-dihydroprostaglandin-A1 n-decyl ester] registered an ID50 values histamine in assay [1] of 4.2 ng/animal. The compound further gave a duration of effect in the assay with bronchial muscles of 30 to 45 min.

Consider `CCCCC[C@H](O)/C=C/[C@H]1CCC(=O)[C@@H]1CCC(C)CCCC(=O)OCCCc1ccccc1` (stereo partly shown) [Example 9, 5-Methyl-10,11-dihydroprostaglandin-A1-3-phenylpropyl ester], for which, in assay [1], the ID50 values histamine is given as 1 ng/animal. The compound further yielded a duration of effect with bronchial muscles of 25 min.

As for `CCCCC[C@H](O)/C=C/[C@H]1CCC(=O)[C@@H]1CCC(C)CCCC(=O)O` (stereo partly shown) [comp. II, 5-methyl-10,11-dihydroprostaglandin-A1], the ID50 values histamine in assay [1] came out at 5 ng/animal. The same compound showed an ID50 values acetylcholine in assay [2] of 10 ng/animal. The compound further yielded an ID50 values serotonin in assay [3] of 9 ng/animal.

As for `CCCCC[C@H](O)/C=C/[C@H]1CCC(=O)[C@@H]1CCC(C)CCCC(=O)OCCOCC` (stereo partly shown) [Example 7, 5-Methyl-10,11-dihydroprostaglandin-A1-2-ethoxyethyl ester], the ID50 values histamine in assay [1] is 0.4 ng/animal. In assay [2], the ID50 values acetylcholine came to 0.88 ng/animal. The ID50 values serotonin in assay [3] was found to be 0.86 ng/animal. This compound registered a duration of effect in the assay on bronchial muscles of 10 to 20 min.

For the origin of these results see US4198429A, “Esters of 5-methyl-10,11-dihydroprostaglandin-A1” (Hoechst Aktiengesellschaft, priority 1976, dated 1980).
